These results are taken from ChEMBL document CHEMBL2203238, “Hit to Lead optimization of a novel class of squarate-containing polo-like kinases inhibitors” (Bioorg Med Chem Lett, 2012).

The structures appear in SMILES notation. Active and inactive are the calls of the source.

The half-life is the time needed for the level to fall by half in the phase considered. High values mean slow decline, low ones rapid decline. As usually defined, the bioavailability is dose-corrected exposure relative to a reference, in per cent. Higher therefore signals much systemic uptake. Broadly, the Ki is a dissociation constant, usually derived from enzyme kinetics or from competition with a known ligand.

The test system of one data set is MIA PaCa-2. Description: Antitumor activity against human MIAPaCa2 cells xenografted in SCID mouse assessed as tumor growth inhibition at 120 mg/kg/day, ip measured on day 21 to day 44 relative to vehicle-treated control. Type of data set: functional, organism-based.
Conditions: not given
(In general: A xenograft is tissue or cells of one species grown in another, often human tumour cells in immunodeficient mice.)
With `Nc1ccn([C@@H]2O[C@H](CO)[C@@H](O)C2(F)F)c(=O)n1`, the TGI result is “Active”.

Test system in a further data set: not listed separately
Description: Half life in mouse. Type of data set: ADME, organism-based. The note with it: in vivo.
For the compound `C[C@@H](Nc1c(Nc2ccncc2)c(=O)c1=O)C(C)(C)C`, the half-life was 23.4 min.

Test system in the next data set: not listed separately
Description: Oral bioavailability in mouse. The note with it: in vivo. Type of data set: ADME, organism-based.
The compound `C[C@@H](Nc1c(Nc2ccncc2)c(=O)c1=O)C(C)(C)C` registered a bioavailability of 54%.

The next data set deals with Serine/threonine-protein kinase PLK1 (Homo sapiens, UniProt P53350). Description: Inhibition of recombinant GST-tagged PLK1 using biotin-ahx-AKMETTFYDDALNASFLPSEKKK-amide as substrate after 30 mins by scintillation counting analysis in presence of gamma-[33P]ATP.
Sequence of Serine/threonine-protein kinase PLK1 (P53350 whole entry): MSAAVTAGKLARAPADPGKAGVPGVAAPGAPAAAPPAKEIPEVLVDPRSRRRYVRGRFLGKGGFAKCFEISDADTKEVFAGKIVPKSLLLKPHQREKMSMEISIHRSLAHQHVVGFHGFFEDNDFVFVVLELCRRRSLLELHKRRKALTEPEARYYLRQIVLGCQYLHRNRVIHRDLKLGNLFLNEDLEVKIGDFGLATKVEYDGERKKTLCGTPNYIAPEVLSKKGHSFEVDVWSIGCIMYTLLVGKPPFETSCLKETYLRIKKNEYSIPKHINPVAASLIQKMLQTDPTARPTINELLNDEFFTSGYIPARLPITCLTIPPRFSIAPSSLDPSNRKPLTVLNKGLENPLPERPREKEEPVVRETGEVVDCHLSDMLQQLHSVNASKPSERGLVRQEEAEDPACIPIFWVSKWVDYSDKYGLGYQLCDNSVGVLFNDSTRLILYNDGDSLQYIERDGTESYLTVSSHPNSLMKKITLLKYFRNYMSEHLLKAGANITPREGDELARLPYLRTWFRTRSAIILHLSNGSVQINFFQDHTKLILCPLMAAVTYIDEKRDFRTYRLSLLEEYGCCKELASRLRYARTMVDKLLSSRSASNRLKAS
Conditions: not given
For the compound `C[C@@H](Nc1c(Nc2ccnc(Nc3ccc(Oc4ccccc4)cc3)n2)c(=O)c1=O)C(C)(C)C`, the Ki was 276 nM.

Regarding `CC(C)(C)Nc1c(Nc2ccnc(Nc3ccc(-c4csnn4)cc3)n2)c(=O)c1=O`, the Ki was determined as 15 nM.

With `C[C@@H](Nc1c(Nc2ccnc(Nc3ccc(Cl)cc3)n2)c(=O)c1=O)C(C)(C)C`, the Ki was 272 nM.

Consider `C[C@@H](Nc1c(Nc2ccnc(Nc3ccc(-c4ccccc4)cc3)n2)c(=O)c1=O)C(C)(C)C`, for which the Ki was 75 nM.

With `CC(C)(C)Nc1c(Nc2ccnc(Nc3ccc(-c4ccccn4)cc3)n2)c(=O)c1=O`, the inhibition constant Ki is 82 nM.

For the compound `CC(C)(C)Nc1c(Nc2nc(Nc3ccc4c(c3)Cc3ccccc3-4)ncc2F)c(=O)c1=O`, the Ki is above 8800 nM.

Consider `CC(C)(C)Nc1c(Nc2ccnc(Nc3ccc(N4CCOCC4)cc3)n2)c(=O)c1=O`, for which the Ki stood at 175 nM.

Consider `C[C@@H](Nc1c(Nc2ccnc(Nc3ccc(F)cc3)n2)c(=O)c1=O)C(C)(C)C`, for which the Ki stood at 232 nM.

With `C[C@@H](Nc1nccc(Nc2c(N[C@H](C)C(C)(C)C)c(=O)c2=O)n1)c1ccccc1`, the Ki turned out to be 9930 nM.

With `O=c1c(NCC2CC2)c(Nc2ccnc(Nc3ccc(-c4ccccc4)cc3)n2)c1=O`, the Ki was 14000 nM.

Turning to `C[C@@H](Nc1c(Nc2ccnc(Nc3ccc4c(c3)Cc3ccccc3-4)n2)c(=O)c1=O)C(C)(C)C`, the Ki worked out at 41 nM.

Regarding `CC(=O)N1CCc2cc(Nc3nccc(Nc4c(NC(C)(C)C)c(=O)c4=O)n3)ccc21`, the Ki turned out to be 20 nM.

Turning to `CC(C)(C)Nc1c(Nc2ccnc(Nc3ccc4c(c3)Cc3ccccc3-4)n2)c(=O)c1=O`, the Ki is 4 nM.

As for `CC(C)(C)Nc1c(Nc2ccnc(Nc3ccc(-c4cccnc4)cc3)n2)c(=O)c1=O`, the Ki came to 28 nM.

For `COc1ccc(Nc2nccc(Nc3c(N[C@H](C)C(C)(C)C)c(=O)c3=O)n2)cc1`, the Ki was found to be 141 nM.

On to `C[C@@H](Nc1c(Nc2ccnc(Nc3cccc4ccccc34)n2)c(=O)c1=O)C(C)(C)C`, for which the Ki was 315 nM.

`C[C@@H](Nc1c(Nc2ccnc(Nc3cccc(-c4ccccc4)c3)n2)c(=O)c1=O)C(C)(C)C`: the Ki stood at 333 nM.

`C[C@@H](Nc1c(Nc2ccnc(Nc3ccc(OC(F)(F)F)cc3)n2)c(=O)c1=O)C(C)(C)C`: the Ki worked out at 610 nM.

In the case of `CC(C)(C)Nc1c(Nc2ccnc(Nc3ccc4[nH]ncc4c3)n2)c(=O)c1=O`, the Ki is 17 nM.

Regarding `COc1cc(Nc2ncc(C#N)c(Nc3c(N[C@H](C)C(C)(C)C)c(=O)c3=O)n2)cc(OC)c1OC`, the Ki is 7720 nM.

As for `CC(C)CC(C)Nc1c(Nc2ccnc(Nc3ccc(-c4ccccc4)cc3)n2)c(=O)c1=O` (centres undefined), the Ki is 1180 nM.

Turning to `CC(C)(C)Nc1c(Nc2ccnc(Nc3ccc4ncsc4c3)n2)c(=O)c1=O`, the Ki is 43 nM.

Regarding `C[C@@H](Nc1c(Nc2cccnc2)c(=O)c1=O)C(C)(C)C`, the Ki was above 44000 nM.

In the case of `CC(C)(C)CNc1c(Nc2ccnc(Nc3ccc(-c4ccccc4)cc3)n2)c(=O)c1=O`, the Ki came to 1800 nM.

For the compound `C[C@@H](Nc1c(Nc2ccnc(Nc3ccc(Br)cc3)n2)c(=O)c1=O)C(C)(C)C`, the Ki is 354 nM.

On to `COc1ccc(Nc2nccc(Nc3c(N[C@H](C)C(C)(C)C)c(=O)c3=O)n2)c(OC)c1`, for which the Ki was 771 nM.

Take `CC(C)(C)Nc1c(Nc2ccnc(Nc3ccc(-c4ccccc4)cc3)n2)c(=O)c1=O`: the Ki came to 14 nM.

With `C[C@@H](Nc1c(Nc2ccnc(Nc3ccccn3)n2)c(=O)c1=O)C(C)(C)C`, the Ki was determined as 40800 nM.

Turning to `C[C@H](Nc1c(Nc2ccnc(Nc3ccc(-c4ccccc4)cc3)n2)c(=O)c1=O)C(C)(C)C`, the Ki was 47 nM.

On to `CC(C)(C)Nc1c(Nc2ccnc(Nc3ccc(-c4cn[nH]c4)cc3)n2)c(=O)c1=O`, for which the Ki was found to be 10 nM.

Turning to `COc1cc(Nc2nccc(Nc3c(N[C@H](C)C(C)(C)C)c(=O)c3=O)n2)cc(OC)c1OC`, the Ki was determined as 234 nM.

Turning to `C[C@@H](Nc1c(Nc2ccnc(Nc3ccccc3)n2)c(=O)c1=O)C(C)(C)C`, the Ki came out at 465 nM.

For `C[C@@H](Nc1c(Nc2ccnc(Nc3ccc4ccccc4c3)n2)c(=O)c1=O)C(C)(C)C`, the Ki turned out to be 85 nM.

As to `C[C@@H](Nc1c(Nc2ccnc(Nc3ccncc3)n2)c(=O)c1=O)C(C)(C)C`, the Ki was above 44000 nM.

Regarding `Cc1ccc(Nc2nccc(Nc3c(N[C@H](C)C(C)(C)C)c(=O)c3=O)n2)cc1`, the Ki was 1010 nM.

Consider `CC(C)(C)Nc1c(Nc2ccnc(Nc3ccc4c(c3)CCO4)n2)c(=O)c1=O`, for which the inhibition constant (Ki) worked out at 22 nM.

On to `C[C@@H](Nc1c(Nc2ccccc2)c(=O)c1=O)C(C)(C)C`, for which the Ki came to 32000 nM.

In the case of `CCC(C)(C)Nc1c(Nc2ccnc(Nc3ccc(-c4ccccc4)cc3)n2)c(=O)c1=O`, the Ki came to 13 nM.

With `CC(C)(C)Nc1c(Nc2ccnc(Nc3ccc4c(c3)[nH]c3ccccc34)n2)c(=O)c1=O`, the Ki is 10 nM.

As for `CC(C)C(C)Nc1c(Nc2ccnc(Nc3ccc(-c4ccccc4)cc3)n2)c(=O)c1=O` (centres undefined), the Ki worked out at 166 nM.

With `O=c1c(NCCN2CCOCC2)c(Nc2ccnc(Nc3ccc(-c4ccccc4)cc3)n2)c1=O`, the Ki turned out to be 8530 nM.

Regarding `CC(Nc1c(Nc2ccnc(Nc3ccc(-c4ccccc4)cc3)n2)c(=O)c1=O)c1ccccc1` (centres undefined), the Ki was 24900 nM.

As for `O=c1c(Nc2ccc(OC(F)(F)F)cc2)c(Nc2ccnc(Nc3ccc(-c4ccccc4)cc3)n2)c1=O`, the Ki turned out to be 17600 nM.

Consider `C[C@@H](Nc1c(Nc2ccnc(Nc3ccc4c(c3)OCCO4)n2)c(=O)c1=O)C(C)(C)C`, for which the Ki came to 255 nM.

Regarding `C[C@@H](Nc1c(Nc2ccnc(Nc3cccnc3)n2)c(=O)c1=O)C(C)(C)C`, the Ki is above 44000 nM.

As to `C[C@@H](Nc1c(Nc2ccnc(Nc3ccc4c(c3)OCO4)n2)c(=O)c1=O)C(C)(C)C`, the Ki is 165 nM.
